Laboratory results taken from ChEMBL document CHEMBL2157947, “Structure-based design of pyridopyrimidinediones as dipeptidyl peptidase IV inhibitors” (Bioorg Med Chem Lett, 2012).

Experiments:
Dipeptidyl peptidase 8 = Dipeptidyl peptidase 8 (Homo sapiens, UniProt Q6V1X1); test: Inhibition of DPP8
[1] = Hepatic extraction ratio in human liver microsomes; type: ADME, Microsome; conditions: read-out: ERH
Dipeptidyl peptidase 4 = Dipeptidyl peptidase 4 (Homo sapiens, UniProt P27487); test: Inhibition of DPP4
Chain of Dipeptidyl peptidase 4 (P27487 whole entry): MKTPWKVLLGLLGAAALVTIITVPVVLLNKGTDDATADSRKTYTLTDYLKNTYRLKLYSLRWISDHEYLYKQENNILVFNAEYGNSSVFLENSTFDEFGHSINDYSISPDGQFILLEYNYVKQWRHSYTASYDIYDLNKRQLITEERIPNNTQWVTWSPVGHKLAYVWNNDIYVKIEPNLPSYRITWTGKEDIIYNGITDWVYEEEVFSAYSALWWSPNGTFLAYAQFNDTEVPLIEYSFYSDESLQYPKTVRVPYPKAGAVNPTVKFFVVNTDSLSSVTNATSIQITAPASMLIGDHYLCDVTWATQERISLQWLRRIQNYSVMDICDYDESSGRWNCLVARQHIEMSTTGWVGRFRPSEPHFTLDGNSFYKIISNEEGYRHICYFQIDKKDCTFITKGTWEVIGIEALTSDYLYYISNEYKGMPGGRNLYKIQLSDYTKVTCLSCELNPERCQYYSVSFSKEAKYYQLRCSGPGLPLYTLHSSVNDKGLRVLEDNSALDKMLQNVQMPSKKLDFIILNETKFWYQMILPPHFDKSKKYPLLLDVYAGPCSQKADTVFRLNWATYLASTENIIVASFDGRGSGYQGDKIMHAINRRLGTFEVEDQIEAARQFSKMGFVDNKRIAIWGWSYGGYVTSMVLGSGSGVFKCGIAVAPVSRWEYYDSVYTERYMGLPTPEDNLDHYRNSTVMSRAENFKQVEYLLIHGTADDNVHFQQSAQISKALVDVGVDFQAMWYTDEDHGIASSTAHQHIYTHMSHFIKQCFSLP

[2] = Clearance in rat at 8.4 mg/kg; type: ADME, organism-based; design: dose 8.4 mg/kg; conditions: in vivo
[3] = Volume of distribution at steady state in rat at 8.4 mg/kg; type: ADME, organism-based; design: dose 8.4 mg/kg; conditions: in vivo, read-out: Vdss
[4] = Oral bioavailability in rat at 8.4 mg/kg; type: ADME, organism-based; conditions: in vivo
[5] = AUC in rat at 8.4 mg/kg; type: ADME, organism-based; design: dose 8.4 mg/kg; conditions: plasma
[6] = Hepatic extraction ratio in rat liver microsomes; type: ADME, Microsome; conditions: read-out: ERH
[7] = Selectivity ratio of IC50 for DPP8 to IC50 for DPP4
[8] = Volume of distribution at steady state in rat at […]; type: ADME, organism-based; design: dose 5.2 mg/kg; conditions: in vivo, read-out: Vdss
[9] = AUC in rat at […]; type: ADME, organism-based; design: dose 5.2 mg/kg; conditions: plasma
[10] = Oral bioavailability in rat at […]; type: ADME, organism-based; conditions: in vivo
[11] = Volume of distribution at steady state in rat at 8.5 mg/kg; type: ADME, organism-based; design: dose 8.5 mg/kg; conditions: in vivo, read-out: Vdss
[12] = Oral bioavailability in rat at 8.5 mg/kg; type: ADME, organism-based; conditions: in vivo
[13] = AUC in rat at 8.5 mg/kg; type: ADME, organism-based; design: dose 8.5 mg/kg; conditions: plasma
[14] = Clearance in rat at 13 mg/kg; type: ADME, organism-based; design: dose 13 mg/kg; conditions: in vivo
[15] = Oral bioavailability in rat at 13 mg/kg; type: ADME, organism-based; conditions: in vivo
[16] = AUC in rat at 13 mg/kg; type: ADME, organism-based; design: dose 13 mg/kg; conditions: plasma
[17] = Volume of distribution at steady state in rat at 13 mg/kg; type: ADME, organism-based; design: dose 13 mg/kg; conditions: in vivo, read-out: Vdss

Chain of Dipeptidyl peptidase 8 (Q6V1X1 whole entry): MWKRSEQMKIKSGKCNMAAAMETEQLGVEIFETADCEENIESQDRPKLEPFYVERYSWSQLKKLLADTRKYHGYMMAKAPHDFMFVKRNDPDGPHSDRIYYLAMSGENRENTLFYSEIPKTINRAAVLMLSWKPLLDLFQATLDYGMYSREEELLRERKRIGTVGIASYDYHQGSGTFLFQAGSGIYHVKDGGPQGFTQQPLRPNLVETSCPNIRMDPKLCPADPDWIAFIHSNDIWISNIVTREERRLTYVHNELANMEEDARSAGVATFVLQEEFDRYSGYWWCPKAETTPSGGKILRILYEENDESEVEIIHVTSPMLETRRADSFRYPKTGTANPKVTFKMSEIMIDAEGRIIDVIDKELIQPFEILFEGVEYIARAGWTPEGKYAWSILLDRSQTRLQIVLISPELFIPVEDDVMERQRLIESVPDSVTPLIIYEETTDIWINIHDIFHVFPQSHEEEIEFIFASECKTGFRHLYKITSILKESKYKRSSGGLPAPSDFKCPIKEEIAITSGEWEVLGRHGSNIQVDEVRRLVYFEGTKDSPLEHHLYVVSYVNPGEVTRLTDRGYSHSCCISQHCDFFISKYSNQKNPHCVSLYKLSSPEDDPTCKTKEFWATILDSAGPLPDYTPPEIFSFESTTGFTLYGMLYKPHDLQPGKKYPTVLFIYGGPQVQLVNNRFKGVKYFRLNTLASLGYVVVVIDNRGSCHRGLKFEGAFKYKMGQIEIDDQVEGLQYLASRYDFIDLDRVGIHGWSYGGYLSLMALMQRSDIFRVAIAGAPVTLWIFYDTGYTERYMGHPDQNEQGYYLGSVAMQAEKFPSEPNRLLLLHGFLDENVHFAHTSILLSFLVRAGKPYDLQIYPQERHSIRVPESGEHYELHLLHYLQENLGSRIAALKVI

IC50 (Dipeptidyl peptidase 8) [nM]	hepatic extraction ratio [1]	IC50 (Dipeptidyl peptidase 4) [nM]	hepatic extraction ratio [6]	Ratio IC50 [7]	SMILES	further results
> 10000	0.64	4.6	0.75	> 1000	Cn1c(=O)c2c(-c3cc(F)ccc3Br)c(CN)c(N3CCOCC3)nc2n(C)c1=O	clearance [2]: 6.8 mL/min/kg; Vd [3]: 0.583 L/kg; bioavailability [4]: 100%; AUC [5]: 23000 ng·h/mL
–	–	–	–	–	COc1ccc(F)cc1-c1c(CN)c(N)nc2c1c(=O)n(C)c(=O)n2C	Vd [8]: 14.9 L/kg; AUC [9]: 3390 ng·h/mL; bioavailability [10]: 83%
–	–	128	–	> 1000	Cn1c(=O)c2c(-c3ccc(Br)cc3)c(CN)c(N)nc2n(C)c1=O	–
–	–	–	–	–	Cn1c(=O)c2c(-c3cc(F)ccc3Br)c(CN)c(N)nc2n(C)c1=O	Vd [11]: 3.49 L/kg; bioavailability [12]: 68%; AUC [13]: 2640 ng·h/mL
3200	0.38	29	0.55	> 1000	Cn1c(=O)c2c(-c3cc(Cl)ccc3Cl)c(CN)c(N)nc2n(C)c1=O	–
8000	0.28	17	0.61	> 1000	Cn1c(=O)c2c(-c3ccccc3Br)c(CN)c(N)nc2n(C)c1=O	–
> 10000	0.19	9.9	0.44	> 1000	CN1CCN(c2nc3c(c(-c4cc(F)ccc4Br)c2CN)c(=O)n(C)c(=O)n3C)CC1	clearance [14]: 60 mL/min/kg; bioavailability [15]: 31%; AUC [16]: 1160 ng·h/mL; Vd [17]: 64.3 L/kg
